Counter-ions that a name gives are not always drawn. Like-named read-outs stand apart in the source and are kept apart here.
System: Salmonella typhimurium ATCC14028 Biofilms
Test: Inhibitory effect of test compounds on Salmonella typhimurium ATCC14028 biofilms (crystal violet, 96-well)
Assay type: cell-based
Settings: for antibiofilm activity (in words): compared with parent compound 1
Protocol: Procedure to Determine the Inhibitory Effect of Test Compounds on Salmonella typhimurium ATCC14028 Biofilms: […] Stock solutions of predetermined concentrations of the test compounds were then made in 1 mL of bacterial culture. […] Sample plates were then incubated for 24 h at 30° C. After incubation, the medium was discarded from the wells and the plates were washed thoroughly with water. Plates were then stained with 110 μL of 0.1% solution of crystal violet (CV) and then incubated at ambient temperature for 30 min. Plates were washed with water again and the remaining stain was solubilized with 200 μL of 95% ethanol. A sample of 125 μL of solubilized CV stain from each well was transferred to the corresponding wells of a polystyrene microtiter dish. Biofilm inhibition was quantitated by measuring the OD540 of each well in which a negative control lane wherein no biofilm was formed served as a background and was subtracted out.

[1] = Salmonella enterica, 24 h, read-out: IC50 (μM), inhibition of biofilm formation, S. typhimurium ATCC14028, 24 h at 30° C., crystal violet OD540
[2] = read-out: IC50 (μM), inhibition of biofilm formation, S. typhimurium ATCC14028, 24 h at 30° C., crystal violet OD540, hydrochloride
[3] = read-out: IC50 (μM), inhibition of biofilm formation, S. typhimurium ATCC14028, 24 h at 30° C., crystal violet OD540

IC50 [1] | SMILES | also measured
20 to 40 µM | CCCCCc1ccc(C(=O)Nc2ccc3nc(N)n(CC)c3c2)cc1 [Compound 9d, N-(2-Amino-1-ethyl-1H-benzo[d]imidazol-6-yl)-4-pentylbenzamide hydrochloride] | 
20 to 40 µM | CCCCCc1ccc(C(=O)Nc2ccc3c(c2)nc(N)n3C(C)C)cc1.Cl [Compound 5k, N-(2-Amino-1-isopropyl-1H-benzo[d]imidazol-5-yl)-4-pentylbenzamide hydrochloride] | antibiofilm activity (in words): reduced or completely abolished antibiofilm activity
15 to 20 µM | CCCCCCc1ccc(C(=O)Nc2ccc3c(c2)nc(N)n3CCCc2ccccc2)cc1 [Compound 10l, N-(2-Amino-1-(3-phenylpropyl)-1H-benzo[d]imidazol-5-yl)-4-hexylbenzamide hydrochloride] | 
15 to 20 µM | CCCc1ccc(C(=O)Nc2ccc3c(c2)nc(N)n3CCCc2ccccc2)cc1 [Compound 10k, N-(2-Amino-1-(3-phenylpropyl)-1H-benzo[d]imidazol-5-yl)-4-propylbenzamide hydrochloride] | 
12.6 ± 1.8 µM | Nc1nc2cc(C(=O)Nc3ccc(Cl)c(Cl)c3)ccc2n1CCCc1ccccc1 [Compound 15, 2-Amino-N-(3,4-dichlorophenyl)-1-(3-phenylpropyl)-1H-benzo[d]imidazole-5-carboxamide hydrochloride] | 
20 to 40 µM | CCCCCc1ccc(C(=O)Nc2ccc3c(c2)nc(N)n3CCc2cnc[nH]2)cc1 [Compound 5j, N-(1-(2-(1H-Imidazol-5-yl)ethyl)-2-amino-1H-benzo[d]imidazol-5-yl)-4-pentylbenzamide dihydrochloride] | 
10.8 ± 0.56 µM | CCCCCCn1c(N)nc2cc(NC(=O)c3ccc(CCCCC)cc3)ccc21 [Compound 5c, N-(2-Amino-1-hexyl-1H-benzo[d]imidazol-5-yl)-4-pentylbenzamide hydrochloride] | 
> 40 µM | CCCCCCCCc1ccc(C(=O)Nc2ccc3c(c2)nc(N)n3CCCc2ccccc2)cc1 [Compound 10r, N-(2-Amino-1-(3-phenylpropyl)-1H-benzo[d]imidazol-5-yl)-4-octylbenzamide hydrochloride] | IC50 [2]: > 50 µM
20 to 40 µM | CCc1ccc(C(=O)Nc2ccc3c(c2)nc(N)n3CCCc2ccccc2)cc1 [Compound 10o, N-(2-Amino-1-(3-phenylpropyl)-1H-benzo[d]imidazol-5-yl)-4-ethylbenzamide hydrochloride] | 
 | CCCCCCCCCCC(=O)Nc1ccc2c(c1)nc(N)n2CCCc1ccccc1 [Compound 10i, N-(2-Amino-1-(3-phenylpropyI)-1H-benzo[d]imidazol-5-yhundecanamide hydrochloride] | IC50 [3]: 10 to 15 µM
 | CCCCCCCCCCCCCC(=O)Nc1ccc2c(c1)nc(N)n2CCCc1ccccc1 [Compound 10t, N-(2-Amino-1-(3-phenylpropyl)-1H-benzo[d]imidazol-5-yhtetradecanamide hydrochloride] | IC50 [2]: > 50 µM
20 to 40 µM | CCCCCc1ccc(C(=O)Nc2ccc3[nH]c(N)nc3c2)cc1 [Compound 5o, N-(2-Amino-1H-benzo[d]imidazol-5-yl)-4-pentylbenzamide hydrochloride] | 
13.1 ± 0.6 µM | CCCCCc1ccc(C(=O)Nc2ccc3c(c2)nc(N)n3CCc2ccccc2)cc1 [Compound 1, N-(2-Amino-1-phenethyl-1H-benzo[d]imidazol-5-yl)-4-pentylbenzamide hydrochloride] | 
 | CCCCCCCCCC(=O)Nc1ccc2c(c1)nc(N)n2CCCc1ccccc1 [Compound 10h, N-(2-Amino-1-(3-phenylpropyl)-1H-benzo[d]imidazol-5-y0decanamide hydrochloride] | IC50 [3]: 10 to 15 µM
< 7 µM | Nc1nc2cc(NC(=O)c3ccc(Br)c(Br)c3)ccc2n1CCCc1ccccc1 [Compound 10b, N-(2-Amino-1-(3-phenylpropyl)-1H-benzo[d]imidazol-5-yl)-3,4-dibromobenzamide hydrochloride] | IC50 (read-out: IC50 (μM), inhibition of biofilm formation, S. typhimurium ATCC14028, 24 h at 30° C., crystal violet OD540, listed as 15b, hydrochloride): 5.38 ± 0.79 µM
20 to 40 µM | CCCCCCC(=O)Nc1ccc2c(c1)nc(N)n2CCCc1ccccc1 [Compound 10p, N-(2-Amino-1-(3-phenylpropyl)-1H-benzo[d]imidazol-5-yl)heptanamide hydrochloride] | 
> 50 µM | CCCCCCCCCCn1c(N)nc2cc(NC(=O)c3ccc(CCCCC)cc3)ccc21.Cl [Compound 5m, N-(2-Amino-1-decyl-1H-benzo[d]imidazol-5-yl)-4-pentylbenzamide hydrochloride] | antibiofilm activity (in words): reduced or completely abolished antibiofilm activity

IC50 [1] | SMILES | also measured
 | CCCCCc1ccc(C(=O)Nc2ccc3c(c2)nc(N)n3CC(C)C)cc1 [Compound 5d, N-(2-Amino-1-isbutyl-1H-benzo[d]imidazol-5-yl)-4-pentylbenzamide hydrochloride] | IC50 [3]: 10 to 15 µM
 | CCCCCCCCCCCC(=O)Nc1ccc2c(c1)nc(N)n2CCCc1ccccc1 [Compound 10s, N-(2-Amino-1-(3-phenylpropyl)-1H-benzo[d]imidazol-5-yhdodecanamide hydrochloride] | IC50 [2]: > 50 µM
10 to 15 µM | CCCCCc1ccc(C(=O)Nc2ccc3nc(N)n(CCCC)c3c2)cc1 [Compound 9a, N-(2-Amino-1-butyl-1H-benzo[d]imidazol-6-yl)-4-pentylbenzamide hydrochloride] | 
15 to 20 µM | CCCCCc1ccc(C(=O)Nc2ccc3c(c2)nc(N)n3C2CCCC2)cc1 [Compound 5g, N-(2-Amino-1-cyclopentyl-1H-benzo[d]imidazol-5-yl)-4-pentylbenzamide hydrochloride] | 
6.66 ± 0.32 µM | CCCCCCCCn1c(N)nc2cc(NC(=O)c3ccc(CCCCC)cc3)ccc21 [Compound 5a, N-(2-Amino-1-octyl-1H-benzo[d]imidazol-5-yl)-4-pentylbenzamide hydrochloride] | 
15 to 20 µM | CCCCCc1ccc(C(=O)Nc2ccc3c(c2)nc(N)n3CCCC)cc1 [Compound 5f, N-(2-Amino-1-butyl-1H-benzo[d]imidazol-5-yl)-4-pentylbenzamide hydrochloride] | 
15 to 20 µM | CCCCCCCc1ccc(C(=O)Nc2ccc3c(c2)nc(N)n3CCCc2ccccc2)cc1 [Compound 10m, N-(2-Amino-1-(3-phenylpropyl)-1H-benzo[d]imidazol-5-yl)-4-heptylbenzamide hydrochloride] | 
20 to 40 µM | CCCCCc1ccc(C(=O)Nc2ccc3nc(N)n(C(C)C)c3c2)cc1 [Compound 9e, N-(2-Amino-1-isopropyl-1H-benzo[d]imidazol-6-yl)-4-pentylbenzamide hydrochloride] | 
15 to 20 µM | CCCCCc1ccc(C(=O)Nc2ccc3c(c2)nc(N)n3C2CCCCC2)cc1 [Compound 5h, N-(2-Amino-1-cyclohexyl-1H-benzo[d]imidazol-5-yl)-4-pentylbenzamide hydrochloride] | 
10 to 15 µM | CCCOc1ccc(C(=O)Nc2ccc3c(c2)nc(N)n3CCCc2ccccc2)cc1 [Compound 10g, N-(2-Amino-1-(3-phenylpropyl)-1H-benzo[d]imidazol-5-yl)-4-propoxybenzamide hydrochloride] | 
> 50 µM | CCCCCCCCCCCCn1c(N)nc2cc(NC(=O)c3ccc(CCCCC)cc3)ccc21.Cl [Compound 5n, N-(2-Amino-1-dodecyl-1H-benzo[d]imidazol-5-yl)-4-pentylbenzamide hydrochloride] | antibiofilm activity (in words): reduced or completely abolished antibiofilm activity
> 40 µM | CCCCCc1ccc(C(=O)Nc2ccc3c(c2)nc(N)n3C)cc1.Cl [Compound 5l, N-(2-Amino-1-methyl-1H-benzo[d]imidazol-5-yl)-4-pentylbenzamide hydrochloride] | antibiofilm activity (in words): reduced or completely abolished antibiofilm activity
> 40 µM | CCCCCCCC(=O)Nc1ccc2c(c1)nc(N)n2CCCc1ccccc1 [Compound 10q, N-(2-Amino-1-(3-phenylpropyl)-1H-benzo[d]imidazol-5-yl)octanamide hydrochloride] | 
10 to 15 µM | CCCCCc1ccc(C(=O)Nc2ccc3c(c2)nc(N)n3CCc2c[nH]c3ccccc23)cc1 [Compound 5e, N-(1-(2-(1H-Indol-3-yl)ethyl)-2-amino-1H-benzo[d]imidazol-5-yl)-4-pentylbenzamide hydrochloride] | 
10 to 15 µM | CCCCc1ccc(C(=O)Nc2ccc3c(c2)nc(N)n3CCCc2ccccc2)cc1 [Compound 10f, N-(2-Amino-1-(3-phenylpropyl)-1H-benzo[d]imidazol-5-yl)-4-butylbenzamide hydrochloride] | 
20 to 40 µM | CCCCCc1ccc(C(=O)Nc2ccc3nc(N)n(C)c3c2)cc1 [Compound 9c, N-(2-Amino-1-methyl-1H-benzo[d]imidazol-6-yl)-4-pentylbenzamide hydrochloride] | 

SMILES | IC50 [1] | also measured
CCCCCc1ccc(C(=O)Nc2ccc3c(c2)nc(N)n3CCCCc2ccccc2)cc1 [Compound 5b, N-(2-Amino-1-(4-phenylbutyl)-1H-benzo[d]imidazol-5-yl)-4-pentylbenzamide hydrochloride] | 9.59 ± 0.23 µM | 
CCCCOc1ccc(C(=O)Nc2ccc3c(c2)nc(N)n3CCCc2ccccc2)cc1 [Compound 10j, N-(2-Amino-1-(3-phenylpropyl)-1H-benzo[d]imidazol-5-yl)-4-butoxybenzamide hydrochloride] | 15 to 20 µM | 
Nc1nc2cc(NC(=O)c3cc(Br)cc(Br)c3)ccc2n1CCCc1ccccc1 [Compound 10c, N-(2-Amino-1-(3-phenylpropyl)-1H-benzo[d]imidazol-5-yl)-3,5-dibromobenzamide hydrochloride] | < 7 µM | IC50 (read-out: IC50 (μM), inhibition of biofilm formation, S. typhimurium ATCC14028, 24 h at 30° C., crystal violet OD540, listed as 15c, hydrochloride): 5.58 ± 0.21 µM

From patent US12390449B2, “Substituted 2-aminobenzimidazoles analogs as antibiofilm agents” (priority 2018, dated 2025)
